{"source": "patent US20110281852A1", "about": "(priority 2010, published 2011)", "key": {"[1]": {"test_system": "SERT promoter (5-HTTLPR alleles)", "assay": "DRL (dual luciferase reporter) assay, SERT promoter activity of 5-HTTLPR alleles in RN46A cells", "format": "cell-based", "details": "2 μM evodiamine", "source_text": "The PCR reaction to amplify the 5-HTTLPR alleles for sequencing and creation of reporter constructs contained primers different than those used for the genotyping experiment.\nThe primer sequences were described previously and are as follows: Forward primer 5′-[…]-3′ (SEQ ID NO:25) and Reverse primer 5′-[…]-3′ (SEQ ID NO:26) (Hu et al., Am J Hum Genet (2006) 78(5):815-826). The PCR products of the six 5-HTTLPR alleles (S, LG, LA, XS, XL-17, and XL-18) were subcloned into the TOPO TA cloning vector pCR2.1-TOPO (Invitrogen) and transformed to One Shot TOP10 competent E. coli cells according to the manufacturer's instructions. In the case of individuals heterozygous for 5-HTTLPR, resulting transformants were screened for the presence of the correct insert using the restriction enzyme EcoR I.\nThe resulting constructs, created and sequenced, in the pCR2.1-TOPO vector (S, LG, LA, XS, XL-17, and XL-18 alleles) were subcloned to the luciferase reporter vector pGL4.10 [luc2] (Promega) using standard molecular techniques. Additionally, each allele was cloned into pGL4.10 [luc2] in the backwards orientation to ensure that transcriptional effects were the result of consensus promoter sequences. […] The co-transfection with the 5-HTTLPR pGL4.10 constructs (firefly luciferase) and the pRL-SV40 vector (renilla luciferase) to the RN46A raphe-derived cell line using Lipofectamine 2000 (Invitrogen) was described previously. Expression was measured using the Dual-Luciferase Reporter Assay System (Promega) 24 h after transfection with passive lysis buffer.\nRelative light units (RLU) for both the firefly and renilla luciferase was measured using a 20/20^n Luminometer (Turner Biosystems, Sunnyvale Calif. 94085) and the ratio between the firefly RLU to renilla RLU in each sample was determined. The values were all normalized to the (S) allele."}, "Adiponectin": {"test_system": "Adiponectin", "assay": "Real-time RT-PCR, Adiponectin mRNA in 3T3-L1", "format": "cell-based, mouse", "details": "8 days", "source_text": "Realtime RT-PCR: Real-time reverse transcriptase polymerase chain reaction (RT-PCR) analysis was used to measure mRNA expression of genes SREBP-1, PPARγ, C/EBPα, low density lipoprotein receptor (LDLR), Adiponectin, and fatty acid synthase (FAS) under the control of β-actin. Briefly, total RNA was isolated from 3T3-L1 cells following treatment for 8 days with Trizol reagent (Invitrogen, Carlsbad, Calif., USA) according to the manufacturer's instruction. RNA was quantified using absorption of light at 260 nm, and sample purity was checked by OD 260 nm/280 nm. 0.8 μg of total RNA from each sample was used for reverse transcription reaction using the TaqMan Reverse Transcription Reagents (Applied Biosystems, Foster City, Calif., USA) according to the manufacturers' instructions. PCR was done using the SYBR green Master Mix (Applied Biosystems, Foster City, Calif., USA) according to the manufacturers' instructions. The temperature cycling conditions of amplification were as follows: an initial step of denaturation at 95° C. for 10 min, 40 cycles of denaturation at 95° C. for 30 s, annealing at 55° C. for 30 s, and elongation at 72° C. for 30 s. Realtime RT-PCR was performed using Mx3000P Realtime Thermocyclers (Statagene, La Jolla, Calif., USA). The relative mRNA levels of these genes were calculated by 2-delta delta CT method and normalized with control groups."}, "SREBP-1": {"test_system": "SREBP-1", "assay": "Immunoblotting, SREBP-1 protein in 3T3-L1", "format": "cell-based, mouse", "details": "8 days", "protocol": "Immunoblotting: Protein expression of SREBP-1, PPARγ, and C/EBPα relative to […] was assessed by Western Blot. Total proteins were isolated from 3T3-L1 cells treated with compounds or vehicles for 8 days. The cells were washed twice with PBS, lysed in a HEPES-Tx-PI buffer ([…], 5 mM EDTA, 350 mM Sucrose, 1 μg/ml leupeptin, 1 μg/ml pepstatin, 1% Triton-X, 1 mM PMSF), processed with 25G needles and centrifuged at 12,000 rpm for 5 min. Protein concentration was determined using the Micro BCA Protein Assay Kit (Fisher Scientific, Pittsburgh, Pa., USA) following the manufacturers instructions. 25 μg proteins were loaded and separated by electrophoresis using the BioRad Electrophoretic System (65 V for 7 hour). The proteins were then transferred to nitrocellulose membranes at 40 V overnight. The membrane was blocked for 1 hour at room temperature in 5% nonfat milk in Tris-buffered saline (TBS), then washed with Tween-20-TBS (TTBS, 0.1% Tween-20) three times (15 min, 5 min, 5 min), followed by incubation with primary antibodies SREBP-1 (dilution 1:200), PPARγ (dilution 1:200), C/EBPα (dilution 1:200) (all purchased from Santa Cruz Biotechnology, Santa Cruz, Calif., USA) and […] (dilution 1:1000, Sigma-Aldrich, St. Louis, Mo., USA) at room temperature for 2 hours. […]"}, "[2]": {"details": "8 μM berberine + 15 μM clozapine"}, "[3]": {"details": "8 μM berberine + 50 μM risperidone"}}}
{"compound": "evodiamine", "values": [{"measurement": "increase of SERT promoter activity vs vehicle", "setting": "[1]; LA allele", "value": 171.5, "unit": "%"}, {"measurement": "increase of SERT promoter activity vs vehicle", "setting": "[1]; LG allele", "value": 288.5, "unit": "%"}, {"measurement": "increase of SERT promoter activity vs vehicle", "setting": "[1]; S allele", "value": 206.9, "unit": "%"}, {"measurement": "increase of SERT promoter activity vs vehicle", "setting": "[1]; XL17 allele", "value": 165.6, "unit": "%"}, {"measurement": "increase of SERT promoter activity vs vehicle", "setting": "[1]; XL18 allele", "value": 96.3, "unit": "%"}, {"measurement": "increase of SERT promoter activity vs vehicle", "setting": "[1]; XS allele", "value": 74.3, "unit": "%"}]}
{"compound": "COc1ccc2cc3[n+](cc2c1OC)CCc1cc2c(cc1-3)OCO2.[Cl-]", "note": "[berberine, Berberine (Chloride Form)]", "values": [{"measurement": "decrease of adiponectin mRNA expression vs clozapine treated group", "setting": "Adiponectin; [2]", "value": 96.3, "unit": "%"}, {"measurement": "decrease of Adiponectin mRNA expression vs risperidone treated group", "setting": "Adiponectin; [3]", "value": 98.2, "unit": "%"}, {"measurement": "decrease of SREBP-1 protein expression vs clozapine treated group", "setting": "SREBP-1; [2]", "value": 64.6, "unit": "%"}, {"measurement": "decrease of SREBP-1 protein expression vs risperidone treated group", "setting": "SREBP-1; [3]", "value": 60.4, "unit": "%"}]}
